“Also recorded” adds a separate entry of the source.
Experiments:
S1P receptor = conditions: administered so as to reduce the number of the osteoclasts in the bone marrow; cited from earlier work
[1] = system: haematopoietic stem cell adhesion factors (Sdf-1a, Kit1, Angpt1, IL7, Vcam1, and Spp1) present in the osteoblasts; assay: Expression of haematopoietic stem cell adhesion factors in osteoblasts treated with neuropeptide Y (real-time quantitative PCR); format: cell-based, C57BL/6 mice; conditions: neuropeptide Y 0, 1, and 5 nM for 3 days; compared to untreated osteoblasts (control); p<0.05, n=3
Description: (§1) Neuropeptide Y, a Y1 agonist, and a Y1 antagonist were purchased from Bache, and used. To perform an in vitro experiment, 1 nM NPY, and 5 nM NPY were diluted with a medium, and injected. For the in vivo experiment, a total of 15 mice (three mice in each group) were also anesthetized with a mixed solution of 100 mg/kg ketamine and 10 mg/kg xylazine, and 50 μg/kg of either neuropeptide Y, Y1 agonist, or Y1 antagonist, and 100 μl of PBS (Gibco) were injected through the tail veins of the mice.
Four- to six-week-old C57BL/6 mice were anesthetized, and sacrificed, and their tibias and femurs were incised. […]
(§2) To measure expression levels of haematopoietic stem cell adhesion factors (Sdf-1a, Kit1, Angpt1, IL7, Vcam1, and Spp1) present in the osteoblasts, a real-time quantitative polymerase chain reaction (PCR) method was used.
(§3) A total of RNAs were extracted from a cell lysate and bone marrow cells using an RNeasy Plus Mini kit (Qiagen, Korea, Ltd), and cDNA was synthesized from a total of 5 μg of RNA using a kit commercially available from Clontech (Mountain View, Calif.). Also, real-time quantitative PCR, which included denaturation at 95° C. for 10 minutes; and 40 cycles with one cycle consisting of denaturation at 95° C. for 10 seconds, annealing at 58° C. for 15 seconds, and extension at 72° C. for 20 seconds, was performed using a Corbett research RG-6000 real-time PCR machine. […]

[2] = system: bone-marrow haematopoietic stem cell adhesion factors; assay: Expression of bone-marrow haematopoietic stem cell adhesion factors in bone marrow after tail-vein injection (real-time quantitative PCR); format: in vivo, mice; conditions: 50 μg/kg through the tail veins; bone marrow taken after 60 minutes; p<0.05, n=3
Description: as §1, §2, §3

[3] = system: bone-marrow hematopoietic progenitor cells in blood; assay: Colony-forming cell (CFC) assay of blood after tail-vein injection; format: in vivo, mice; conditions: 50 μg/kg tail vein; after 60 minutes of injection (of 15 minutes, 60 minutes, 12 hours)
Description: as §1
A colony-forming cell (CFC) assay was performed to measure the number of bone-marrow hematopoietic progenitor cells in blood from mice.
First, the mice were anesthetized, and 500 μl to 700 μl of blood was drawn from the hearts of the mice, and collected in a heparin tube. Thereafter, the collected blood was added to an ammonium chloride solution (Stem Cell Technologies, Inc. 1:10), and kept in ice for 15 minutes to remove red blood cells. The blood was shaken at intervals of 2 to 3 minutes to sufficiently remove the red blood cells, and centrifuged at 1,000 rpm for 7 minutes. […] Then, colonies formed on the flask were counted. […]
To examine an effect of the activation of the neuropeptide Y receptor on the release of the bone marrow precursor cells into the blood, the colony number of the bone marrow precursor cells was also counted using a CFC assay as described in Example 1-4. […]

[4] = system: bone-marrow haematopoietic stem cells; assay: Flow cytometry analysis (FAC) of bone-marrow haematopoietic stem cells; format: in vivo, mice; conditions: 50 μg/kg; bone marrow after 60 minutes; compared to PBS; p<0.05, n=3
Description: To determine whether there is a change in the number of the bone-marrow haematopoietic stem cells present in the bone marrows from the mice, NPY and PBS were injected to normal mice. After 60 minutes, the bone marrows were collected, and analyzed by flow cytometry analysis (FAC) using five antibodies Lineage, Sca-1, c-kit, CD48, and CD150, which were markers for the bone-marrow haematopoietic stem cells.
To analyze the bone-marrow haematopoietic stem cells, the bone marrows collected from the tibias and femurs of 4- to 6-week-old C57BL/6 mice was added in an ammonium chloride solution (Stem Cell Technologies, Inc. 1:4) to remove red blood cells. Thereafter, the red blood cells were washed with a PBS (Gibco) solution supplemented with 10% fetal bovine serum (FBS, Gibco) and 1% sodium azide (Sigma-Aldrich), and then centrifuged at 300×g for 10 minutes. Hemoblasts included in the bone marrow were removed with MAC beads (MiltenyiBiotec) using a biotinylated lineage antibody (MiltenyiBiotec), and the remaining cells were reacted with Sca-1-PECY7, c-kit-APC, CD150-PE, CD48-FITC (BD Science) antibodies at 4° C. for 30 minutes, and then analyzed using an LSRII (BD Science) flow cytometer.
First, normal mice were divided into two groups (three mice in each group), and 50 μg/kg of neuropeptide Y and 100 μl of PBS (Gibco) were administered to the mice. […]

[5] = system: bone-marrow haematopoietic stem cells and bone-marrow hematopoietic progenitor cells; assay: Competitive transplantation assay; format: in vivo, mice
Description: As an experimental method capable of determining the migration of bone-marrow haematopoietic stem cells and bone-marrow hematopoietic progenitor cells present in the bone marrows of the mice into blood, a competitive transplantation assay were performed.
(§4) A mixture of bone marrow cells (2×10^6) of Ly5.2 (C57BL/6) donor mice and bone marrow cells (2×10^6) of Ly5.1 (BoyJ) mice was injected to recipient mice whose whole bodies were exposed to 10 Gy irradiations (2×5 Gy) through the tail veins thereof. On the week 8 of transplantation of the bone marrow cells, blood was drawn from the recipient mice, and analyzed by an LSR II (BD science) flow cytometer using CD45.1-PE (BD Science), and CD45.2-FITC (BD Science) antibodies. Repopulating units (RU) are indicated using a calculation method represented by the following Equation 1.
Repopulating unit (RU)=(20×CD45.2%)/(100−CD45.2%) [Equation 1]
as §4, with “([…])” for “(2×10^6)”, “Repopulating units (RU) are indicated using a calculation method represented by the following Equation 1.” left out

osteoporosis model = assay: Osteoporosis model (ovariotomy) and control model, micro-CT of femurs; format: in vivo, C57BL/6 female mice; conditions: for entire bone density in micro-CT images: compared to PBS
Description: Also, a total 6 female mice (three mice in each group), 12 weeks old, were subjected to an ovariotomy to establish an osteoporosis model. After a week, 50 μg/kg of neuropeptide Y and 100 μl of PBS (Gibco) were abdominally administered twice a day to the female mice at an interval of 12 hours for 3 weeks. As the control, a total 6 female mice (three mice in each group) were subjected to […] to establish a Sham model for osteoporosis. In this case, 100 μl of PBS or 50 μg/kg of neuropeptide Y was abdominally administered. […] To measure a bone density (bone volume/total volume) and a trabecular thickness, volume fractions with 2.5×0.5×0.5 mm^3 in the same portions of the femurs in each group were measured using Siemens Inveon software. First, three C57BL/6 female mice in each group, 12 weeks old, were subjected to an ovariotomy to establish an osteoporosis model. After a week, 50 μg/kg of neuropeptide Y and 100 μl of PBS (Gibco) were abdominally administered twice a day to the female mice at an interval of 12 hours for 3 weeks. As the control, the normal mice which were subjected to subcutaneous incision alone and into which 100 μl of PBS and 50 μg/kg of neuropeptide Y were abdominally administered were used. On the 22nd day, the femurs of the mice were isolated, and refrigerated in 80% ethanol, and the bone density and the trabecular thickness were then measured using micro CT.

[6] = osteoporotic (OVX) mice, 50 μg/kg abdominally twice a day for 3 weeks, versus PBS, n=3

| Compound | bone formation (S1P receptor) | expression levels of Sdf-1a, Kit1, and Angpt1 in osteoblasts [1] | expression levels of the adhesion factors Sdf-1a, Kit1, Angpt1, and Vcam1 in bone marrow [2] | colony number of the bone-marrow hematopoietic progenitor cells released into the blood [3] | bone-marrow haematopoietic stem cells labeled with Lin−, Sca-1+, c-kit+, CD48−, and CD150+ in the bone marrow [4] | number of the haematopoietic stem cells (CD45.2+ cells) in the bone marrows of injected mice ([5]; compared to bone marrows of mice into which PBS was injected) | ratio of the CD45.2+ cells ([5]; donor bone marrow of injected mice mixed with Ly5.1 bone marrow, recipient blood 8 weeks after transplantation, compared to PBS) | entire bone density in micro-CT images (osteoporosis model; control (Sham) model, 50 μg/kg abdominally) | decrease in bone density and trabecular thickness of the osteoporotic mice (osteoporosis model; long-term administration in the osteoporosis model) | entire bone density in micro-CT images (osteoporosis model; osteoporotic (OVX) mice, 50 μg/kg abdominally twice a day for 3 weeks) | bone density (BV/TV, %) (osteoporosis model; [6]) | trabecular thickness (mm) (osteoporosis model; [6]) |
| --- | --- | --- | --- | --- | --- | --- | --- | --- | --- | --- | --- | --- |
| CCCCCCCCc1ccc(CCC(N)(CO)CO)cc1 [FTY720] | increases |  |  |  |  |  |  |  |  |  |  |  |
| CCCCCCCCCCCCC/C=C/[C@@H](O)[C@@H](N)COP(=O)(O)O [sphingosine-1-phosphate] | increases |  |  |  |  |  |  |  |  |  |  |  |
| neuropeptide Y |  | decreased in a ration-dependent manner | decreased; also recorded: generally reduced | largest colony number | decreased in the bone marrow | lower | reduced | higher entire bone density; also recorded: increased | inhibited | higher entire bone density; also recorded: remarkably increased | higher | higher |

— patent US20160243198A1, “Pharmaceutical Composition for Preventing or Treating Osteoporosis Which Comprises Neuropeptide Y as Active Ingredient” (KYUNGPOOK NATIONAL UNIVERSITY INDUSTRY-ACADEMIC COOPERATION …, priority 2013, published 2016)
